Results reported in US11917908B2, “Organic compound, optical device, light-emitting device, light-emitting apparatus, electronic device, and lighting device” (SEMICONDUCTOR ENERGY LABORATORY CO., LTD., priority 2019, dated 2024).

Experiments:
Format in all cases: physicochemical
[1] = Solubility in a solvent (toluene, 25° C.); details: for solubility: organic solvent or mixture, 1M
Experimental: The measurement results on the solubility of 3,10PCA2Nbf(IV)-02 and 3,10mmtBuPCA2Nbf(IV)-02 in a solvent are shown below. The solubility in the table are that in toluene at 25° C. Consequently, the organic compound of one embodiment of the present invention has improved solubility in a solvent owing to the bonding of the secondary or tertiary alkyl groups having 3 to 6 carbon atoms and having a branched carbon atom which is bonded to the phenyl group to the two meta-positions of the phenyl group bonded to the 9-position of the carbazolyl group. Thus, the organic compound of one embodiment of the present invention can be easily produced owing to the easy purification.

[2] = Thermogravimetry-differential thermal analysis (TG-DTA), weight reduction temperature; details: for Temperature at TG −5% (weight reduction temperature): weight reduced from initial weight by 5%; for Temperature at TG −5% (weight reduction temperature) / Temperature at TG −10% (weight reduction temperature) / Temperature at TG −50% (weight reduction temperature): 10 Pa, temperature rising rate 10° C./min; for Temperature at TG −10% (weight reduction temperature): weight reduced from initial weight by 10%; for Temperature at TG −50% (weight reduction temperature): weight reduced from initial weight by 50%
Experimental: The thermogravimetry-differential thermal analysis (TG-DTA) of these four substances was performed. The measurement was performed with a high vacuum differential type differential thermal balance (TG-DTA2410SA, produced by Bruker AXS K.K.). […] The temperatures of the time when the weight of the organic compounds is reduced from the initial weight by 5%, 10%, and 50% (weight reduction temperature) are shown in Table 3.

[3] = Behaviour at sublimation purification; details: at the time of sublimation purification

SMILES | solubility [1] | Temperature at TG −5% (weight reduction temperature) [2] | Temperature at TG −10% (weight reduction temperature) [2] | Temperature at TG −50% (weight reduction temperature) [2] | Stability at sublimation purification [3] | Solubility 0.01M ([1]; 0.01M) | Solubility 0.1M ([1]; 0.1M) | Sublimability (from weight reduction temperatures) ([2]; comparison of the four substances of Table 3)
c1ccc(N(c2ccc3c(c2)oc2cc4cc5c(cc4cc23)oc2cc(N(c3ccccc3)c3ccc4c6ccccc6n(-c6ccccc6)c4c3)ccc25)c2ccc3c4ccccc4n(-c4ccccc4)c3c2)cc1 [3,10PCA2Nbf(IV)-02, 3,10-bis[N-(9-phenyl-9H-carbazol-2-yl)-N-phenylamino]naphtho[2,3-b;6,7-b′]bisbenzofuran] | < 10 mM | 398 °C | 411 °C | 442 °C | – | – | – | –
CCc1cc(CC)cc(-n2c3ccccc3c3ccc(N(c4ccccc4)c4ccc5c(c4)oc4cc6cc7c(cc6cc45)oc4cc(N(c5ccccc5)c5ccc6c8ccccc8n(-c8cc(CC)cc(CC)c8)c6c5)ccc47)cc32)c1 [3,10mmEtPCA2Nbf(IV)-02, N,N-bis[9-(3,5-diethylphenyl)-9H-carbazol-2-yl]-N,N-diphenyl-naphtho[2,3-b;6,7-b′]bisbenzofuran-3,10-diamine] | – | 380 °C | 402 °C | 436 °C | – | – | – | –
CCCCCCc1cc(CCCCCC)cc(-n2c3ccccc3c3ccc(N(c4ccccc4)c4ccc5c(c4)oc4cc6cc7c(cc6cc45)oc4cc(N(c5ccccc5)c5ccc6c8ccccc8n(-c8cc(CCCCCC)cc(CCCCCC)c8)c6c5)ccc47)cc32)c1 [3,10mmHexPCA2Nbf(IV)-02, N,N-bis[9-(3,5-dihexylphenyl)-9H-carbazol-2-yl]-N,N-diphenyl-naphtho[2,3-b;6,7-b′]bisbenzofuran-3,10-diamine] | – | 384 °C | 407 °C | 442 °C | decomposed at the time of sublimation purification | – | – | –
CC(C)(C)c1cc(-n2c3ccccc3c3ccc(N(c4ccccc4)c4ccc5c(c4)oc4cc6cc7c(cc6cc45)oc4cc(N(c5ccccc5)c5ccc6c8ccccc8n(-c8cc(C(C)(C)C)cc(C(C)(C)C)c8)c6c5)ccc47)cc32)cc(C(C)(C)C)c1 [3,10mmtBuPCA2Nbf(IV)-02, N,N-bis[9-(3,5-di-tert-butylphenyl)-9H-carbazol-2-yl]-N,N-diphenyl-naphtho[2,3-b;6,7-b′]bisbenzofuran-3,10-diamine] | < 1000 mM | 378 °C | 394 °C | 423 °C | – | ∘ | ∘ | highest sublimability
